Data as given in ChEMBL document CHEMBL4049402, “Synthesis and cytotoxic activity of novel tetrahydrobenzodifuran-imidazolium salt derivatives” (Bioorg Med Chem Lett, 2017).

Key:
Type in all cases: functional, cell-based
MCF7 = experiment: Cytotoxicity against human MCF7 cells after 48 hrs by MTT assay
SMMC-7721 = experiment: Cytotoxicity against human SMMC7721 cells after 48 hrs by MTT assay
A549 = experiment: Cytotoxicity against human A549 cells after 48 hrs by MTT assay
SW480 = experiment: Cytotoxicity against human SW480 cells after 48 hrs by MTT assay
HL-60 = experiment: Cytotoxicity against human HL60 cells after 48 hrs by MTT assay

SMILES	IC50 (MCF7; Homo sapiens, MCF7, 48 h) [µM]	IC50 (SMMC-7721; Homo sapiens, SMMC-7721, 48 h) [µM]	IC50 (A549; Homo sapiens, A549, 48 h) [µM]	IC50 (SW480; Homo sapiens, SW480, 48 h) [µM]	IC50 (HL-60; Homo sapiens, HL-60, 48 h) [µM]	IC50 (MCF7; mcf7) [µM]	IC50 (SMMC-7721; smmc-7721) [µM]	IC50 (A549; a549) [µM]	IC50 (SW480; sw480) [µM]	IC50 (HL-60; hl-60) [µM]
Cc1n(Cc2c3c(cc4c2OCC4)OCC3)c2ccccc2[n+]1Cc1ccc([N+](=O)[O-])cc1	> 20	> 20	> 20	> 20	> 20					
O=C(C[n+]1cn(Cc2c3c(cc4c2OCC4)OCC3)c2ccccc21)c1ccc2ccccc2c1	2.2	5.25	7.73	5.42	1.88					
Brc1ccccc1C[n+]1ccn(Cc2c3c(cc4c2OCC4)OCC3)c1	> 20	> 20	> 20	> 20	> 20					
Cc1cc2c(cc1C)[n+](Cc1ccc3ccccc3c1)cn2Cc1c2c(cc3c1OCC3)OCC2 [listing 1 of 2 here]						8.34	2.98	3.62	6.84	0.29
Cc1ccc(C[n+]2cn(Cc3c4c(cc5c3OCC5)OCC4)c3cc(C)c(C)cc32)cc1 [listing 1 of 2 here]						7.98	6.49	4.06	6.31	0.38
Cc1ccc(C[n+]2c(C)n(Cc3c4c(cc5c3OCC5)OCC4)c3ccccc32)cc1	> 20	> 20	> 20	> 20	> 20					
Brc1ccccc1C[n+]1cn(Cc2c3c(cc4c2OCC4)OCC3)c2ccccc21	8.3	> 20	> 20	8.95	4.9					
Cc1nc2ccccc2n1Cc1c2c(cc3c1OCC3)OCC2	> 20	> 20	> 20	> 20	> 20					
COc1ccc(C(=O)C[n+]2ccn(Cc3c4c(cc5c3OCC5)OCC4)c2)cc1	> 20	> 20	> 20	> 20	> 20					
Cc1cc2c(cc1C)[n+](Cc1ccc([N+](=O)[O-])cc1)cn2Cc1c2c(cc3c1OCC3)OCC2	> 20	> 20	> 20	> 20	> 20					
O=C(C[n+]1cn(Cc2c3c(cc4c2OCC4)OCC3)c2ccccc21)c1ccc(Br)cc1	5.12	5.95	16.1	5.11	5.81					
Cc1n(Cc2c3c(cc4c2OCC4)OCC3)c2ccccc2[n+]1Cc1ccccc1Br	> 20	> 20	> 20	> 20	> 20					
Cc1cc2c(cc1C)[n+](Cc1ccccc1Br)cn2Cc1c2c(cc3c1OCC3)OCC2	7.29	5.96	8.64	7.87	3.18					
c1ccc2c(c1)ncn2Cc1c2c(cc3c1OCC3)OCC2	> 20	> 20	> 20	> 20	> 20					
Cc1cc2c(cc1C)[n+](Cc1ccc3ccccc3c1)cn2Cc1c2c(cc3c1OCC3)OCC2 [listing 2 of 2 here]		2.99	4.34	3.48		3.94				1.06
COc1ccc(C(=O)C[n+]2c(C)n(Cc3c4c(cc5c3OCC5)OCC4)c3ccccc32)cc1	7.87	> 20	> 20	10.1	5.14					
COc1ccc(C(=O)C[n+]2cn(Cc3c4c(cc5c3OCC5)OCC4)c3cc(C)c(C)cc32)cc1	9.87	6.87	15.4	13.7	2.71					
Cc1n(Cc2c3c(cc4c2OCC4)OCC3)c2ccccc2[n+]1Cc1ccc2ccccc2c1	3.4	5.5	9.14	4.1	1.76					
Cc1cc2c(cc1C)[n+](CC(=O)c1ccccc1)cn2Cc1c2c(cc3c1OCC3)OCC2	7.8	17.4	> 20	11.9	5.68					
c1ccc2cc(C[n+]3ccn(Cc4c5c(cc6c4OCC6)OCC5)c3)ccc2c1	> 20	> 20	> 20	> 20	> 20					
Cc1cc2c(cc1C)[n+](CC(=O)c1ccc3ccccc3c1)cn2Cc1c2c(cc3c1OCC3)OCC2	8.67	5.64	7.77	14	1.95					

SMILES	IC50 (MCF7; Homo sapiens, MCF7, 48 h) [µM]	IC50 (SMMC-7721; Homo sapiens, SMMC-7721, 48 h) [µM]	IC50 (A549; Homo sapiens, A549, 48 h) [µM]	IC50 (SW480; Homo sapiens, SW480, 48 h) [µM]	IC50 (HL-60; Homo sapiens, HL-60, 48 h) [µM]	IC50 (MCF7; mcf7) [µM]	IC50 (SMMC-7721; smmc-7721) [µM]	IC50 (A549; a549) [µM]	IC50 (SW480; sw480) [µM]	IC50 (HL-60; hl-60) [µM]
Cc1cc2c(cc1C)[n+](Cc1ccc(Br)cc1)cn2Cc1c2c(cc3c1OCC3)OCC2 [listing 1 of 2 here]	6.85	4.72	6.9	10.1	0.49					
Cc1ccc(C[n+]2cn(Cc3c4c(cc5c3OCC5)OCC4)c3cc(C)c(C)cc32)cc1 [listing 2 of 2 here]	7.39	4.43	5.82	6.15						1.58
Brc1ccc(C[n+]2cn(Cc3c4c(cc5c3OCC5)OCC4)c3ccccc32)cc1	5.4	17.8	> 20	10.1	4.12					
Cc1ccc(C[n+]2cn(Cc3c4c(cc5c3OCC5)OCC4)c3ccccc32)cc1	> 20	> 20	> 20	> 20	> 20					
Cc1cc2c(cc1C)[n+](Cc1ccc(Br)cc1)cn2Cc1c2c(cc3c1OCC3)OCC2 [listing 2 of 2 here]						8.05	6.61	9.01	7.76	0.57
Cc1cc2c(cc1C)[n+](CC(=O)c1ccc(Br)cc1)cn2Cc1c2c(cc3c1OCC3)OCC2 [listing 1 of 2 here]						18	13	15.3	15.2	2.38
O=C(C[n+]1cn(Cc2c3c(cc4c2OCC4)OCC3)c2ccccc21)c1ccccc1	> 20	> 20	> 20	> 20	> 20					
O=C(C[n+]1ccn(Cc2c3c(cc4c2OCC4)OCC3)c1)c1ccc(Br)cc1	> 20	> 20	> 20	> 20	> 20					
O=[N+]([O-])c1ccc(C[n+]2cn(Cc3c4c(cc5c3OCC5)OCC4)c3ccccc32)cc1	> 20	> 20	> 20	> 20	> 20					
Cc1cc2c(cc1C)[n+](CC(=O)c1ccc(Br)cc1)cn2Cc1c2c(cc3c1OCC3)OCC2 [listing 2 of 2 here]	12.7		8	16.3	4.04		6.23			
Cc1n(Cc2c3c(cc4c2OCC4)OCC3)c2ccccc2[n+]1CC(=O)c1ccc(Br)cc1	6.43	11.8	> 20	8.29	4.7					
Cc1ccc(C[n+]2ccn(Cc3c4c(cc5c3OCC5)OCC4)c2)cc1	> 20	> 20	> 20	> 20	> 20					
O=C(C[n+]1ccn(Cc2c3c(cc4c2OCC4)OCC3)c1)c1ccc2ccccc2c1	> 20	> 20	> 20	> 20	> 20					
c1ccc2cc(C[n+]3cn(Cc4c5c(cc6c4OCC6)OCC5)c4ccccc43)ccc2c1	2.62	5.66	10.7	4.11	2.3					
Cc1cc2ncn(Cc3c4c(cc5c3OCC5)OCC4)c2cc1C	> 20	> 20	> 20	> 20	> 20					
COc1ccc(C(=O)C[n+]2cn(Cc3c4c(cc5c3OCC5)OCC4)c3ccccc32)cc1	6.6	> 20	> 20	14	5.99					
c1cn(Cc2c3c(cc4c2OCC4)OCC3)cn1	> 20	> 20	> 20	> 20	> 20					
Brc1ccc(C[n+]2ccn(Cc3c4c(cc5c3OCC5)OCC4)c2)cc1	> 20	> 20	> 20	> 20	> 20					
O=[N+]([O-])c1ccc(C[n+]2ccn(Cc3c4c(cc5c3OCC5)OCC4)c2)cc1	> 20	> 20	> 20	> 20	> 20					
Cc1n(Cc2c3c(cc4c2OCC4)OCC3)c2ccccc2[n+]1CC(=O)c1ccccc1	> 20	> 20	> 20	> 20	> 20					
Cc1n(Cc2c3c(cc4c2OCC4)OCC3)c2ccccc2[n+]1Cc1ccc(Br)cc1	4.86	7.42	> 20	7.22	3.63					
